According to PubChem BioAssay (NCI):
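Tested at 5 concentrations; 48 h exposure; 96-well plates; endpoints linearly interpolated, else capped at highest concentration. GI50 = concentration required for 50% inhibition of growth. Definition used: TGI = concentration required for complete inhibition of growth.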

Assays:
Experiment in all cases: inhibition of tumour cell growth, NCI panel, 48 h
786-0 renal = system: 786-0 renal
A498 renal = system: A498 renal
A549 NSCLC = system: A549 NSCLC
ACHN renal = system: ACHN renal
CAKI-1 renal = system: CAKI-1 renal
CCRF-CEM leukemia = system: CCRF-CEM leukemia
COLO 205 colon = system: COLO 205 colon
DU-145 prostate = system: DU-145 prostate
HCC-2998 colon = system: HCC-2998 colon
HCT-116 colon = system: HCT-116 colon
HCT-15 colon = system: HCT-15 colon
HL-60(TB) leukemia = system: HL-60(TB) leukemia
HOP-62 NSCLC = system: HOP-62 NSCLC
HOP-92 NSCLC = system: HOP-92 NSCLC
HS 578T breast = system: HS 578T breast
HT29 colon = system: HT29 colon
IGROV1 ovarian = system: IGROV1 ovarian
K-562 leukemia = system: K-562 leukemia
KM12 colon = system: KM12 colon
LOX IMVI melanoma = system: LOX IMVI melanoma
M14 melanoma = system: M14 melanoma
MALME-3M melanoma = system: MALME-3M melanoma
MCF7 breast = system: MCF7 breast
MDA-MB-231 breast = system: MDA-MB-231 breast
MDA-MB-435 = system: MDA-MB-435
MOLT-4 leukemia = system: MOLT-4 leukemia
NCI-H226 lung = system: NCI-H226 lung
NCI-H23 lung = system: NCI-H23 lung
NCI-H460 lung = system: NCI-H460 lung
NCI/ADR-RES ovarian = system: NCI/ADR-RES ovarian
OVCAR-3 ovarian = system: OVCAR-3 ovarian
OVCAR-4 ovarian = system: OVCAR-4 ovarian
OVCAR-5 ovarian = system: OVCAR-5 ovarian
OVCAR-8 ovarian = system: OVCAR-8 ovarian
PC-3 prostate = system: PC-3 prostate
RPMI-8226 leukemia = system: RPMI-8226 leukemia
SF-268 CNS = system: SF-268 CNS
SF-295 CNS = system: SF-295 CNS
SF-539 CNS = system: SF-539 CNS
SK-MEL-2 melanoma = system: SK-MEL-2 melanoma
SK-MEL-28 melanoma = system: SK-MEL-28 melanoma
SK-MEL-5 melanoma = system: SK-MEL-5 melanoma
SK-OV-3 ovarian = system: SK-OV-3 ovarian
SN12C renal = system: SN12C renal
SNB-19 CNS = system: SNB-19 CNS
SNB-75 CNS = system: SNB-75 CNS
SR leukemia = system: SR leukemia
SW-620 colon = system: SW-620 colon
T-47D breast = system: T-47D breast
TK-10 renal = system: TK-10 renal
U251 CNS = system: U251 CNS
UACC-257 melanoma = system: UACC-257 melanoma
UACC-62 melanoma = system: UACC-62 melanoma
UO-31 renal = system: UO-31 renal

With `CN(C)C(=O)c1cc2cnc(Nc3ccc(N4CCNCC4)cn3)nc2n1C1CCCC1` as the compound, how does the GI50 (786-0 renal) read?
Its GI50 is 11.4 µM.

What about the TGI (786-0 renal) of the same compound?
Its TGI is 49.8 µM.

What about the GI50 (A498 renal) of the same compound?
The GI50 was 11.8 µM.

What about the TGI (A498 renal) of the same compound?
The TGI was 30.9 µM.

And the GI50 (A549 NSCLC)?
Its GI50 is 12 µM.

What about the TGI (A549 NSCLC) of the same compound?
The TGI was 41.6 µM.

What about the GI50 (ACHN renal) of the same compound?
Its GI50 is 7.89 µM.

What about the TGI (ACHN renal) of the same compound?
The TGI was over 100 µM.

And the GI50 (CAKI-1 renal)?
Its GI50 is 20 µM.

What about the TGI (CAKI-1 renal) of the same compound?
Its TGI is over 100 µM.

What about the GI50 (CCRF-CEM leukemia) of the same compound?
The GI50 was 2.92 µM.

And the TGI (CCRF-CEM leukemia)?
Its TGI is over 100 µM.

What about the GI50 (COLO 205 colon) of the same compound?
The GI50 was 1.75 µM.

And the TGI (COLO 205 colon)?
Its TGI is 26.5 µM.

What about the GI50 (DU-145 prostate) of the same compound?
The GI50 was 23.5 µM.

And the TGI (DU-145 prostate)?
Its TGI is over 100 µM.

What about the GI50 (HCC-2998 colon) of the same compound?
Its GI50 is 27.8 µM.

What about the TGI (HCC-2998 colon) of the same compound?
The TGI was over 100 µM.

And the GI50 (HCT-116 colon)?
The GI50 was 4.25 µM.

And the TGI (HCT-116 colon)?
Its TGI is 48.7 µM.

And the GI50 (HCT-15 colon)?
The GI50 was 16.6 µM.

What about the TGI (HCT-15 colon) of the same compound?
The TGI was over 100 µM.

What about the GI50 (HL-60(TB) leukemia) of the same compound?
The GI50 was 1.74 µM.

What about the TGI (HL-60(TB) leukemia) of the same compound?
Its TGI is 28.1 µM.

And the GI50 (HOP-62 NSCLC)?
The GI50 was 2.09 µM.

What about the TGI (HOP-62 NSCLC) of the same compound?
Its TGI is 58.5 µM.

What about the GI50 (HOP-92 NSCLC) of the same compound?
Its GI50 is 0.867 µM.

What about the TGI (HOP-92 NSCLC) of the same compound?
The TGI was 61.6 µM.

And the GI50 (HS 578T breast)?
The GI50 was 13.8 µM.

And the TGI (HS 578T breast)?
The TGI was 53.5 µM.

And the GI50 (HT29 colon)?
The GI50 was 3.28 µM.

And the TGI (HT29 colon)?
The TGI was over 100 µM.

And the GI50 (IGROV1 ovarian)?
Its GI50 is 19.5 µM.

What about the TGI (IGROV1 ovarian) of the same compound?
The TGI was over 100 µM.

What about the GI50 (K-562 leukemia) of the same compound?
Its GI50 is 17.6 µM.

What about the TGI (K-562 leukemia) of the same compound?
Its TGI is over 100 µM.

And the GI50 (KM12 colon)?
Its GI50 is 2.85 µM.

What about the TGI (KM12 colon) of the same compound?
Its TGI is 32.9 µM.

And the GI50 (LOX IMVI melanoma)?
Its GI50 is 4.44 µM.

What about the TGI (LOX IMVI melanoma) of the same compound?
The TGI was 26.3 µM.

And the GI50 (M14 melanoma)?
Its GI50 is 15.7 µM.

And the TGI (M14 melanoma)?
The TGI was 39.1 µM.

And the GI50 (MALME-3M melanoma)?
The GI50 was 5.4 µM.

And the TGI (MALME-3M melanoma)?
The TGI was 22.3 µM.

What about the GI50 (MCF7 breast) of the same compound?
Its GI50 is 0.592 µM.

What about the TGI (MCF7 breast) of the same compound?
Its TGI is 37.2 µM.

And the GI50 (MDA-MB-231 breast)?
Its GI50 is 8.48 µM.

What about the TGI (MDA-MB-231 breast) of the same compound?
The TGI was 74.5 µM.

And the GI50 (MDA-MB-435)?
The GI50 was 12.7 µM.

And the TGI (MDA-MB-435)?
The TGI was 36.6 µM.

What about the GI50 (MOLT-4 leukemia) of the same compound?
The GI50 was 1.8 µM.

What about the TGI (MOLT-4 leukemia) of the same compound?
The TGI was 34.5 µM.

What about the GI50 (NCI-H226 lung) of the same compound?
The GI50 was 25.2 µM.

What about the TGI (NCI-H226 lung) of the same compound?
The TGI was over 100 µM.

What about the GI50 (NCI-H23 lung) of the same compound?
The GI50 was 13.9 µM.

And the TGI (NCI-H23 lung)?
Its TGI is 63.2 µM.

And the GI50 (NCI-H460 lung)?
Its GI50 is 11.3 µM.

And the TGI (NCI-H460 lung)?
The TGI was 43.8 µM.

What about the GI50 (NCI/ADR-RES ovarian) of the same compound?
Its GI50 is 37.8 µM.

And the TGI (NCI/ADR-RES ovarian)?
The TGI was over 100 µM.

And the GI50 (OVCAR-3 ovarian)?
The GI50 was 21 µM.

What about the TGI (OVCAR-3 ovarian) of the same compound?
Its TGI is 69.2 µM.

What about the GI50 (OVCAR-4 ovarian) of the same compound?
The GI50 was 22.4 µM.

And the TGI (OVCAR-4 ovarian)?
Its TGI is 86.8 µM.

What about the GI50 (OVCAR-5 ovarian) of the same compound?
Its GI50 is 1.45 µM.

What about the TGI (OVCAR-5 ovarian) of the same compound?
The TGI was 73.1 µM.

And the GI50 (OVCAR-8 ovarian)?
The GI50 was 23.7 µM.

What about the TGI (OVCAR-8 ovarian) of the same compound?
Its TGI is 89.7 µM.

And the GI50 (PC-3 prostate)?
Its GI50 is 1.01 µM.

And the TGI (PC-3 prostate)?
Its TGI is 62.9 µM.

What about the GI50 (RPMI-8226 leukemia) of the same compound?
Its GI50 is 2.62 µM.

And the TGI (RPMI-8226 leukemia)?
Its TGI is 30 µM.

What about the GI50 (SF-268 CNS) of the same compound?
The GI50 was 14.1 µM.

What about the TGI (SF-268 CNS) of the same compound?
The TGI was 38.3 µM.

What about the GI50 (SF-295 CNS) of the same compound?
The GI50 was 13.1 µM.

And the TGI (SF-295 CNS)?
The TGI was 42 µM.

And the GI50 (SF-539 CNS)?
The GI50 was 15.7 µM.

And the TGI (SF-539 CNS)?
The TGI was 30.8 µM.

What about the GI50 (SK-MEL-2 melanoma) of the same compound?
The GI50 was 12.2 µM.

And the TGI (SK-MEL-2 melanoma)?
Its TGI is 30.1 µM.

And the GI50 (SK-MEL-28 melanoma)?
The GI50 was 16.1 µM.

And the TGI (SK-MEL-28 melanoma)?
Its TGI is 48.3 µM.

And the GI50 (SK-MEL-5 melanoma)?
Its GI50 is 11.6 µM.

And the TGI (SK-MEL-5 melanoma)?
Its TGI is 24.5 µM.

What about the GI50 (SK-OV-3 ovarian) of the same compound?
Its GI50 is 34.8 µM.

What about the TGI (SK-OV-3 ovarian) of the same compound?
The TGI was over 100 µM.

What about the GI50 (SN12C renal) of the same compound?
Its GI50 is 13.9 µM.

And the TGI (SN12C renal)?
The TGI was 93.6 µM.

And the GI50 (SNB-19 CNS)?
The GI50 was 14.2 µM.

And the TGI (SNB-19 CNS)?
Its TGI is over 100 µM.

What about the GI50 (SNB-75 CNS) of the same compound?
Its GI50 is 10.2 µM.

And the TGI (SNB-75 CNS)?
The TGI was 22 µM.

And the GI50 (SR leukemia)?
The GI50 was 3.21 µM.

And the TGI (SR leukemia)?
The TGI was 38.7 µM.

And the GI50 (SW-620 colon)?
Its GI50 is 1.21 µM.

What about the TGI (SW-620 colon) of the same compound?
Its TGI is 66 µM.

What about the GI50 (T-47D breast) of the same compound?
Its GI50 is 12.9 µM.

And the TGI (T-47D breast)?
The TGI was 91.8 µM.

What about the GI50 (TK-10 renal) of the same compound?
The GI50 was 4.37 µM.

What about the TGI (TK-10 renal) of the same compound?
The TGI was over 100 µM.

And the GI50 (U251 CNS)?
Its GI50 is 11.3 µM.

And the TGI (U251 CNS)?
Its TGI is 49.8 µM.

And the GI50 (UACC-257 melanoma)?
The GI50 was 15.7 µM.

What about the TGI (UACC-257 melanoma) of the same compound?
Its TGI is 33.4 µM.

What about the GI50 (UACC-62 melanoma) of the same compound?
Its GI50 is 15.4 µM.

And the TGI (UACC-62 melanoma)?
Its TGI is 34 µM.

What about the GI50 (UO-31 renal) of the same compound?
Its GI50 is 4.56 µM.

And the TGI (UO-31 renal)?
Its TGI is 62.1 µM.
